Reference: patent publication US20140018347A1, “BENZOXAZEPINES AS INHIBITORS OF mTOR AND METHODS OF THEIR USE AND MANUFACTURE” (Exelixis, Inc., priority 2010, published 2014)
pIC50: −log10 of the molar value.

How the values were obtained:
mTORC1 = mTORC1 (Homo sapiens, UniProt P42345); experiment: mTOR/GbL/Raptor (mTORC1) ELISA Assay; type: biochemical; details: phosphorylation of 4E-BP1; 0.2 nM mTORC1, 10 μM ATP
In short: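 Kinase reaction: 0.2 nM mTORC1, 10 μM ATP, 50 nM NHis-4E-BP1 in Hepes pH 7.2 with 10 mM MnCl2, 120 min at ambient temperature. Phospho-4E-BP1 was captured on Ni-chelate plates and detected by anti-phospho-4E-BP1 rabbit IgG, HRP secondary and chemiluminescence.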

PI3Kalpha = PI3Kalpha (Homo sapiens, UniProt P42336); experiment: PI3K Biochemical Assays (PI3K-alpha assay); details: ATP consumption, luciferase-luciferin; 1 μM ATP, 10 μM PIP2
In short: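 Recombinant PI3Kα 3 nM, ATP 1 μM and PIP2 10 μM in Tris pH 7.5 with 10 mM MgCl2, ~2 h at ambient temperature. ATP depletion (held to 40-60%) was read by Kinase-Glo luminescence for IC50. Other isoforms: β 10 nM, δ 4 nM; γ 40 nM, 1 h, 5 mM MgCl2.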

PI3Kalpha, sequence (P42336 whole entry, canonical isoform): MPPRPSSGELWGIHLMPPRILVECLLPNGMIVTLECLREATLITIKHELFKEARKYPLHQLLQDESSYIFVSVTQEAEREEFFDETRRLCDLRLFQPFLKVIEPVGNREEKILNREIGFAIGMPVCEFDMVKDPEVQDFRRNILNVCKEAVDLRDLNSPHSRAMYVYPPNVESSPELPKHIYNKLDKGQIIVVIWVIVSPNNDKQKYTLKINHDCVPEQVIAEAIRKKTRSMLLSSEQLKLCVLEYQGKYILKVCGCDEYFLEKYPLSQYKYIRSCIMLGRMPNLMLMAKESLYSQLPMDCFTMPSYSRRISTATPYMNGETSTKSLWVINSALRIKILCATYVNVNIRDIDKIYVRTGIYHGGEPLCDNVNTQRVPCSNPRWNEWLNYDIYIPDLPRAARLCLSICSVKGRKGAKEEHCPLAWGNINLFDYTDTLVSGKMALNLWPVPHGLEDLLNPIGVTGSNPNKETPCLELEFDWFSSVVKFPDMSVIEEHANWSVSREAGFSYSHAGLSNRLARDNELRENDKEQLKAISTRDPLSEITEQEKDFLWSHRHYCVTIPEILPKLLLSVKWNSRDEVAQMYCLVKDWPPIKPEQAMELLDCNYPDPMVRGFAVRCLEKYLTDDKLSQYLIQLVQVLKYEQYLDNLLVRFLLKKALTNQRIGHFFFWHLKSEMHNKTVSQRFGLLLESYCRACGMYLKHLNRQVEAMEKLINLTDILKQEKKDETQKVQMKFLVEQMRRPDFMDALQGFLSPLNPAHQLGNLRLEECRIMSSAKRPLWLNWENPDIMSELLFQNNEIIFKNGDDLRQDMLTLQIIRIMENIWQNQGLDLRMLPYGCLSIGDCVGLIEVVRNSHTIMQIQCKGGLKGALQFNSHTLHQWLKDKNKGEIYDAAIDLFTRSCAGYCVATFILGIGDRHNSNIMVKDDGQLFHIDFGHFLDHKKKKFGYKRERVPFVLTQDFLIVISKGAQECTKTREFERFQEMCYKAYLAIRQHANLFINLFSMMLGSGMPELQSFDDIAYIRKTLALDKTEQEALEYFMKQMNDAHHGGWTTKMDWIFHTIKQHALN
PI3Kalpha, sequence (P27986 whole entry partner, canonical isoform): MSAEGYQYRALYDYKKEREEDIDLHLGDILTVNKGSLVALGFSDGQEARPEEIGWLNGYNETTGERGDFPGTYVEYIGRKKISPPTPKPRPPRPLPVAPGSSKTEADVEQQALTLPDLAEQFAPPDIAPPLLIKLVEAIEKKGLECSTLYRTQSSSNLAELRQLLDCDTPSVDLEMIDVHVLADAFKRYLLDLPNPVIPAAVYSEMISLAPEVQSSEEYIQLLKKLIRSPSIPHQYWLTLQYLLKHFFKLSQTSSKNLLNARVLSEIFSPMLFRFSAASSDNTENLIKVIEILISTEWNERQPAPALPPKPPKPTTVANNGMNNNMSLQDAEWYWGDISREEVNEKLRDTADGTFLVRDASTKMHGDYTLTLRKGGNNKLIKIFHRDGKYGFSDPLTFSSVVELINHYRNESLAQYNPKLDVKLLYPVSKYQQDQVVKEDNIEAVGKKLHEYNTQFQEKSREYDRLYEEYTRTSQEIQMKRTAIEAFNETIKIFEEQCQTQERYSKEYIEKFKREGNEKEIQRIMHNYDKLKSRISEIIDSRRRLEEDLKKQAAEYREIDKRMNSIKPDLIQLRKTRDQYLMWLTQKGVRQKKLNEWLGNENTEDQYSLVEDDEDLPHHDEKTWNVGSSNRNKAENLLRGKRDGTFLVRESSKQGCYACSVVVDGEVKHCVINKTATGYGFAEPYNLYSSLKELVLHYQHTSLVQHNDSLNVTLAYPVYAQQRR

pIC50 (mTORC1) | pIC50 (PI3Kalpha) | SMILES
≥ 7.00 | ≥ 7.00 | C=Cc1c(C)nc(N)nc1N1CCOc2ccc(-c3cnc4sc(N)nc4c3)cc2C1 [Compound 52, 6-[4-(2-amino-5-ethenyl-6-methylpyrimidin-4-yl)-2,3,4,5-tetrahydro-1,4-bcnzoxazepin-7-yl][1,3]thiazolo[5,4-b]pyridin-2-amine]
6.30 to 7.00 | ≥ 7.00 | Cc1nc(N)nc(N2CCOc3ccc(-c4cnc5sc(N)nc5c4)cc3C2)c1C=O [Compound 42, 2-amino-4-[7-(2-amino[1,3]thiazolo[5,4-b]pyridin-6-yl)-2,3-dihydro-1,4-bcnzoxazepin-4(5H)-yl]-6-methylpyrimidine-5-carbaldehyde]
6.30 to 7.00 | 6.30 to 7.00 | Nc1cc(Cl)nc(N2CCOc3ccc(-c4cnc5sc(N)nc5c4)cc3C2)n1 [Compound 50, 6-[4-(4-amino-6-chloropyrimidin-2-yl)-2,3,4,5-tetrahydro-1,4-benzoxazepin-7-yl][1,3]thiazolo[5,4-b]pyridin-2-amine]
5.60 to 6.30 | 6.30 to 7.00 | Cc1nc(CN(C)C)nc(N2CCOc3ccc(-c4cnc5sc(N)nc5c4)cc3C2)c1F [Compound 66, 6-(4-{2-[(dimethylamino)methyl]-5-fluoro-6-methylpyrimidin-4-yl)-1,3,4,5-tetrahydro-1,4-benzoxazepin-7-yl)[1,3]thiazolo[5,4-b]pyridin-2-amine]
≥ 7.00 | ≥ 7.00 | COC(C)c1c(Cl)nc(N)nc1N1CCOc2ccc(-c3cnc4sc(N)nc4c3)cc2C1 (centres unmarked) [Compound 96, 6-(4-{2-amino-6-chloro-5-[1-(methyloxy)ethyl]pyrimidin-4-yl)-2,3,4,5-tetrahydro-1,4-benzoxazepin-7-yl)[1,3]thiazolo[5,4-b]pyridin-2-amine]
≥ 7.00 | ≥ 7.00 | C=Cc1c(N2CCOc3ccc(-c4cnc5sc(N)nc5c4)cc3C2)nc(N)nc1C(F)(F)F [Compound 17, 6-{4-[2-amino-5-ethenyl-6-(trifluoromethyl)pyrimidin-4-yl]-2,3,4,5-tetrahydro-1,4-benzoxazepin-7-yl}[1,3]thiazolo[5,4-b]pyridin-2-amine]
6.30 to 7.00 | ≥ 7.00 | COC(=O)Cc1c(C)nc(CN(C)C)nc1N1CCOc2ccc(-c3cnc4sc(N)nc4c3)cc2C1 [Compound 14, methyl {4-[7-(2-amino[1,3]thiazolo[5,4-b]pyridin-6-yl)-2,3-dihydro-1,4-benzoxazepin-4(5H)-yl]-2-[(dimethylamino)methyl]-6-methylpyrimidin-5-yl}acetate]
6.30 to 7.00 | 5.60 to 6.30 | Nc1cc(N2CCOc3ccc(-c4cnc5sc(N)nc5c4)cc3C2)nc(Cl)n1 [Compound 51, 6-[4-(6-amino-2-chloropyrimidin-4-yl)-2,3,4,5-tetrahydro-1,4-benzoxazepin-7-yl][1,3]thiazolo[5,4-b]pyridin-2-amine]
≥ 7.00 | ≥ 7.00 | Cc1nc2c(c(N3CCOc4ccc(-c5cnc6sc(N)nc6c5)cc4C3)n1)CC(C)(C)CC2 [Compound 59, 6-[4-(2,6,6-trimethyl-5,6,7,8-tetrahydroquinazolin-4-yl)-2,3,4,5-tetrahydro-1,4-benzoxazepin-7-yl][1,3]thiazolo[5,4-b]pyridin-2-amine]
≥ 7.00 | ≥ 7.00 | CC#Cc1c(C)nc(N)nc1N1CCOc2ccc(-c3cnc4sc(N)nc4c3)cc2C1 [Compound 77, 6-[4-(2-amino-6-methyl-5-prop-1-yn-1-ylpyrimidin-4-yl)-2,3,4,5-tetrahydro-1,4-benzoxazepin-7-yl][1,3]thiazolo[5,4-b]pyridin-2-amine]
